Test results reported in patent US11479802B2, “Assays for screening activity of modulators of members of the hydroxy steroid (17-beta) dehydrogenase (HSD17B) family” (Regeneron Pharmaceuticals, Inc., priority 2017, dated 2022).

Columns and labels:
Assay type in all cases: biochemical
[1] = target: T1, human HSD17B13 (Homo sapiens, UniProt Q7Z5P4); assay: Substrate screening of steroid and bioactive lipid libraries against purified recombinant HSD17B13 (NADH-linked luciferase assay); settings: Steroid Library, 50 μM steroid; for HSD17B13 Enzymatic Activity Relative Light Units: 500 μM NAD+, 100 ng enzyme, 3 hours at 23° C.; for HSD17B13 Enzymatic Activity Percent Estradiol Control: normalized to 50 μM estradiol after subtraction of 5% DMSO
T1 sequence (Q7Z5P4 20-300): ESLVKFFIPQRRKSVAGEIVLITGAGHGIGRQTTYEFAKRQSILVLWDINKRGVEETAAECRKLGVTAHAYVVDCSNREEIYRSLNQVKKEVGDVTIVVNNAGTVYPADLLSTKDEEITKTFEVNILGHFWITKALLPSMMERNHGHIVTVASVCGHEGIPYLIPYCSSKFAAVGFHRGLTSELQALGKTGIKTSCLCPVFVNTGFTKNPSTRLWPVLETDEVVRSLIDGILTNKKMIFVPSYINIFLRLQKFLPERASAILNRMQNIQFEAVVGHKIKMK
Summary of the method: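 Substrates (bioactive lipids 5 μM, steroids 50 μM; 5% DMSO) tested with 500 μM NAD+ and 100 ng recombinant human HSD17B13 in 0.2 M Tris-HCl pH 7.5, 3 h, 23° C. Luminescent NADH detection followed 1 h later; RLU normalized to estradiol (50 μM, 100%) and DMSO (0%) controls.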

[2] = target: T2, HSD17B1 (Homo sapiens, UniProt P14061); assay: Steroid substrate panel against HSD17B family member B1; settings: substrate at 50 μM; estradiol set as 100%
T2 construct: made in house
T2 sequence (P14061 1-328): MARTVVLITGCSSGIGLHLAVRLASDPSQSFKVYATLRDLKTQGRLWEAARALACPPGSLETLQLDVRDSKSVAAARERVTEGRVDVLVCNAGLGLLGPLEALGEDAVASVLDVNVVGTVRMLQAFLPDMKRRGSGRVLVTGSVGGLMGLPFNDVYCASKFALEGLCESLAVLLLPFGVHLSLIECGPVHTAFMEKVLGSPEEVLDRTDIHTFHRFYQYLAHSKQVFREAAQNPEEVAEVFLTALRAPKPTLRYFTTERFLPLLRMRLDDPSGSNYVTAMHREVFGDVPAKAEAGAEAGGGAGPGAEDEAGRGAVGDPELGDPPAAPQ
Procedure: (§1) To understand the functional consequences of premature truncation of the HSD17B13 protein due to rs72613567:TA (the associated variant, rs72613567, is an insertion of an adenine adjacent to the donor splice site of exon six (TA allele)), the enzymatic activity of isoforms A and D was evaluated in vitro using recombinant protein and nicotinamide […] dinucleotide as cofactor. Reactions were performed in a final volume of 40 μl of assay buffer (0.2 M Tris-HCl, pH 7.5) which contained 500 μM NAD^+, 5 μM bioactive lipid or 50 μM steroid (all in a final concentration of 5% DMSO), and 100 ng of recombinant human HSD17B13. Reactions were incubated for 3 hours, at 23° C., after which an equal volume detection reagent was added. Following a 1 hour incubation at 23° C., the relative light units (RLUs) were measured on an Envision Plate Reader (Perkin Elmer). Raw RLU values were normalized as percent of control (50 μM estradiol) following subtraction of negative control (5% DMSO) using the following formula: Percent of control (POC)=100×(Sample (RLU)−Negative CTRLaverage)/(Positive CTRLaverage−Negative CTRLaverage).
(§2) In order to determine specificity of compounds with inhibitory activity against HSD17B13, assays for selected members of the HSD17B family which includes HSD17B1-HSD17B14 were established. As a first step, selected family members were expressed, purified and tested for activity a using a steroid substrate panel. Substrates from the steroid panel were tested at 50 μM, using the standard assay protocol. Activity against the substrates for each HSD17B family member were normalized to Percent of Control (POC). The control, estradiol, was set as 100%.

[3] = target: T3, HSD17B2 (Homo sapiens, UniProt P37059); assay: Steroid substrate panel against HSD17B family member B2; settings: substrate at 50 μM; estradiol set as 100%
T3 construct: made in house
T3 sequence (P37059 1-387): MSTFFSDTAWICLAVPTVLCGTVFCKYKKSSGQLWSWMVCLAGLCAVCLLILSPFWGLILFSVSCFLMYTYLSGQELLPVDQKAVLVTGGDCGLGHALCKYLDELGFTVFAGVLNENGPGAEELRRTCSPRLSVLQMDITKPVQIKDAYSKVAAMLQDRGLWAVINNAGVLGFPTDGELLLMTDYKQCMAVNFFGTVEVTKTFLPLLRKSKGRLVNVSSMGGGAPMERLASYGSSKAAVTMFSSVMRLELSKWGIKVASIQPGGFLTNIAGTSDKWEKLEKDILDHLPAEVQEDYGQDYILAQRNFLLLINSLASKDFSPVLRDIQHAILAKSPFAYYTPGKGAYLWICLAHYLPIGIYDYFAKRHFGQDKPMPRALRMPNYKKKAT
Procedure: as §1, §2

[4] = target: T4, HSD17B4 (Homo sapiens, UniProt P51659); assay: Steroid substrate panel against HSD17B family member B4; settings: substrate at 50 μM; estradiol set as 100%
T4 construct: made in house
T4 sequence (P51659 1-736): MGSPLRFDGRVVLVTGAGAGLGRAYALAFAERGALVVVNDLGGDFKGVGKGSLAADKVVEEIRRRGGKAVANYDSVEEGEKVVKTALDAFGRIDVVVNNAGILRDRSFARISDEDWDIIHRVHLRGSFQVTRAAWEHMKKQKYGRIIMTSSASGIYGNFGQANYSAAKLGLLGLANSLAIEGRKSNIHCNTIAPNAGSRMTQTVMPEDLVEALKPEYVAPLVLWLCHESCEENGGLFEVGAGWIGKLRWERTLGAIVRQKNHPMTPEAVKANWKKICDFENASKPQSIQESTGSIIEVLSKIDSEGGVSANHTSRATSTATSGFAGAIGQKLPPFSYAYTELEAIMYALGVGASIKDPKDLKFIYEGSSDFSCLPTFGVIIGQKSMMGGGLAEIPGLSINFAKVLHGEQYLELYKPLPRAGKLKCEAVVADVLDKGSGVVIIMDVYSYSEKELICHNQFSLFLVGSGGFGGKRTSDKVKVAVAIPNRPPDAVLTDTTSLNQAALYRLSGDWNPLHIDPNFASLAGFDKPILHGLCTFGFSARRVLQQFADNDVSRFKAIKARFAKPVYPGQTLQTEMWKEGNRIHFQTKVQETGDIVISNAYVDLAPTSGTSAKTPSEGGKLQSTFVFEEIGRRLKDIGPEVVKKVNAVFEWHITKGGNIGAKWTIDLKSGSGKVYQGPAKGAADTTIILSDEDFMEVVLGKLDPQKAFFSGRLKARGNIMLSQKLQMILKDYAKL
Procedure: as §1, §2

[5] = target: T5, HSD17B5 (Homo sapiens, UniProt P42330); assay: Steroid substrate panel against HSD17B family member B5; settings: substrate at 50 μM; estradiol set as 100%
T5 construct: made in house
T5 sequence (P42330 1-323): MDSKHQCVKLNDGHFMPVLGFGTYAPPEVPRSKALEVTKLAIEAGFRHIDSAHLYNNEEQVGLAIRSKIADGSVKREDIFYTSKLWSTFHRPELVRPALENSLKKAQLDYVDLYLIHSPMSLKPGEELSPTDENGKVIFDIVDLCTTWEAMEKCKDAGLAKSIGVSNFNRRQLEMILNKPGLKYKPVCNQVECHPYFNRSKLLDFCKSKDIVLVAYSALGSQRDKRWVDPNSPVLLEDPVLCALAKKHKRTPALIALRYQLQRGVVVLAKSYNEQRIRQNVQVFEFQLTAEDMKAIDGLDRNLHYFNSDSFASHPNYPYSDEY
Procedure: as §1, §2

[6] = target: T6, HSD17B10 (Homo sapiens, UniProt Q99714); assay: Steroid substrate panel against HSD17B family member B10; settings: substrate at 50 μM; estradiol set as 100%
T6 construct: made in house
T6 sequence (Q99714 1-261): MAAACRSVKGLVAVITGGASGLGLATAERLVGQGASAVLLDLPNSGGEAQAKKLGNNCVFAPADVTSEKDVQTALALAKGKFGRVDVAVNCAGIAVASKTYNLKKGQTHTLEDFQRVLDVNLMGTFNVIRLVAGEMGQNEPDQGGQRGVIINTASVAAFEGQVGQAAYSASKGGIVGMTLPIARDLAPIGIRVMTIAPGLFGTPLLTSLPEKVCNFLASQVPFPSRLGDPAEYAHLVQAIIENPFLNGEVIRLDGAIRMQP
Procedure: as §1, §2

[7] = target: T7, HSD17B11 (Homo sapiens, UniProt Q8NBQ5); assay: Steroid substrate panel against HSD17B family member B11; settings: substrate at 50 μM; estradiol set as 100%
T7 construct: made in house
T7 sequence (Q8NBQ5 20-300): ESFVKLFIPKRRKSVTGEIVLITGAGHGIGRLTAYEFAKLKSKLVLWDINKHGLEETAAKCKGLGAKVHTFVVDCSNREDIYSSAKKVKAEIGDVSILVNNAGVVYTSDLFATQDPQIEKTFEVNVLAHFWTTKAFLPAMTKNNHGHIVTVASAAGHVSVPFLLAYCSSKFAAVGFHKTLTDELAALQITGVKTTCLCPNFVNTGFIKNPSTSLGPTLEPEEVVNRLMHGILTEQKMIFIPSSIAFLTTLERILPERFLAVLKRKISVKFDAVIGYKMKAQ
Procedure: as §1, §2

Row | SMILES | HSD17B13 Enzymatic Activity Relative Light Units [1] [RLU] | HSD17B13 Enzymatic Activity Percent Estradiol Control [1] [%] | Percent of Control (POC), B1 [2] [%] | Percent of Control (POC), B2 [3] [%] | Percent of Control (POC), B4 [4] [%] | Percent of Control (POC), B5 [5] [%] | Percent of Control (POC), B10 [6] [%] | Percent of Control (POC), B11 [7] [%]
1 | C[C@]12CC[C@H]3[C@@H](CCC4=CC(=O)CC[C@@]43C)[C@@H]1CC[C@@H]2O [Testosterone] | 1125600 | 16.86 | 1.1 | 96.2 | 84.6 | 0 | 4.0 | 10.4
2 | C[C@]12CC[C@@H](O)C[C@@H]1CC[C@@H]1[C@@H]2CC[C@]2(C)C(=O)CC[C@@H]12 [Androsterone] | 158120 | −0.04 | 0.0 | 1.0 | 0.3 | 0 | 91.0 | 0.0
3 | C[C@]12CC[C@@H](O)C[C@@H]1CC[C@@H]1[C@@H]2CC[C@]2(C)C(=O)[C@H](O)C[C@@H]12 [16alpha-Hydroxyandrosterone] | 221840 | 1.07 | 0.0 | 1.5 | 0.5 | 45 | 69.7 | 0.0
4 | C[C@]12CC[C@@H](O)C[C@@H]1CC[C@@H]1[C@@H]2[C@@H](O)C[C@@]2(C)[C@H]1CC[C@]2(O)C(=O)CO [5alpha-Tetrahydrocortisol] | 229040 | 1.20 | −0.1 | 3.1 | 0.2 | 0 | 46.3 | 0.0
5 | C[C@]12CC[C@@H](O)C[C@H]1CC[C@@H]1[C@@H]2C(=O)C[C@@]2(C)[C@H]1CC[C@]2(O)C(=O)CO [TetrahydroCortisone] | 232320 | 1.25 | 0.0 | 1.0 | 0.5 | 104 | 52.2 | 0.0
6 | C[C@]12CC[C@@H](O)C[C@@H]1CC[C@@H]1[C@@H]2C(=O)C[C@]2(C)C(=O)CC[C@@H]12 [11-oxo-androsterone] | 196640 | 0.63 | 0.0 | 0.0 | 0.4 | 0 | 31.4 | 0.0
7 | CC(=O)OCC(=O)[C@H]1CC[C@H]2[C@@H]3CCC4=CC(=O)CC[C@]4(C)[C@H]3[C@@H](O)C[C@]12C [Corticosterone 21-acetate] | 190160 | 0.52 | −0.1 | 0.0 | 0.1 | 0 | 0.3 | 32.2
8 | C[C@]12CC[C@H](O)C[C@@H]1CC[C@@H]1[C@@H]2CC[C@]2(C)[C@@H](O)CC[C@@H]12 [5alpha-androstane-3beta,17beta-diol] | 398600 | 4.16 | 0.3 | 42.5 | 38.9 | 0 | 1.2 | 0.0
